Results on one compound are retold here after patent US20130237601A1, “COMPOSITION FOR THE TREATMENT AND/OR PREVENTION OF FIRE BLIGHT” (LANXESS DISTRIBUTION GMBH, priority 2006, published 2013).

Counter-ions that a name gives are not always drawn.

The subject of the assay is Erwinia amylovora. Briefly: Test for inhibitory activity against Erwinia amylovora (inhibitory zone on CYE medium plates). Type of assay: cell-based. Particulars: after 24 hours, read-out: Inhibitory zone diameter. The method, then:
10 μl of an Erwinia amylovora suspension were plated onto CYE medium at a density of 10^8 cfu/ml. Thereafter, a hole 5 mm in diameter was punched into the center of the plates, and 20 μl of the test solution were introduced. After 24 hours, the inhibitory zone was measured. The reference substance was streptomycin sulfate, and the negative control was tap water.
The product used was an aqueous solution of the preparation according to the invention in the form of granules of formic acid and/or a salt of formic acid, in particular calcium formate, whose content in formic acid and/or a salt of formic acid, in particular calcium formate, was approximately 80% by weight. This preparation was diluted with tap water to give the concentrations stated (based on the granules).

On to `[H]/N=C(/N)N[C@H]1[C@H](O)[C@@H](O)[C@H](O[C@@H]2O[C@@H](C)[C@](O)(C=O)[C@H]2O[C@@H]2O[C@@H](CO)[C@H](O)[C@@H](O)[C@@H]2NC)[C@@H](N/C(N)=N\[H])[C@@H]1O` [Streptomycin sulfate, streptomycin sulfate], for which, for the setting “concentration 0.001% by weight”, the zone of inhibition at 0.001 % strength was found to be 16 mm. The zone of inhibition at 0.01 % strength (concentration 0.01% by weight) was 20 mm. Further, where the note is “concentration 0.1% by weight”, the zone of inhibition at 0.1 % strength was found to be 24 mm.
